Laboratory results as given in ChEMBL document CHEMBL1201862, “PubChem BioAssay data set” (2004).
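Each compound was tested at five concentrations against cells in 96-well plates for 48 hours. GI50 is the concentration that inhibits growth by half.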 The source made the active and inactive calls. No stated cut-off is given here; in the data, active = GI50 up to about 1.1 µM and inactive = higher.

Assays:
Test in all cases: NCI-60 cell line screen, 48 h
786-0 = system: 786-0
A549 = system: A549
ACHN = system: ACHN
CCRF-CEM = system: CCRF-CEM
COLO 205 = system: COLO 205
DMS-114 = system: DMS-114
DMS-273 = system: DMS-273
EKVX = system: EKVX
HCC 2998 = system: HCC 2998
HCT-116 = system: HCT-116
HCT-15 = system: HCT-15
HL-60 = system: HL-60
HOP-62 = system: HOP-62
HOP-92 = system: HOP-92
HT-29 = system: HT-29
IGROV-1 = system: IGROV-1
K562 = system: K562
KM-20L2 = system: KM-20L2
KM12 = system: KM12
LOX IMVI = system: LOX IMVI
LXFL 529 = system: LXFL 529
M14 = system: M14
M19-MEL = system: M19-MEL
MOLT-4 = system: MOLT-4
Malme-3M = system: Malme-3M
NCI-H226 = system: NCI-H226
NCI-H23 = system: NCI-H23
NCI-H460 = system: NCI-H460
NCI-H522 = system: NCI-H522
OVCAR-3 = system: OVCAR-3
OVCAR-4 = system: OVCAR-4
OVCAR-5 = system: OVCAR-5
RPMI-8226 = system: RPMI-8226
SF-268 = system: SF-268
SF-295 = system: SF-295
SF-539 = system: SF-539
SK-MEL-28 = system: SK-MEL-28
SK-MEL-2 = system: SK-MEL-2
SK-MEL-5 = system: SK-MEL-5
SK-OV-3 = system: SK-OV-3
SN12C = system: SN12C
SNB-19 = system: SNB-19
SNB-75 = system: SNB-75
SNB-78 = system: SNB-78
SR = system: SR
TK-10 = system: TK-10
U-251 = system: U-251
UACC-257 = system: UACC-257
UACC-62 = system: UACC-62
UO-31 = system: UO-31
XF498 = system: XF498
A498 = system: A498
BT-549 = system: BT-549
CAKI-1 = system: CAKI-1
DU-145 = system: DU-145
Hs-578T = system: Hs-578T
MCF7 = system: MCF7
MDA-MB-231 = system: MDA-MB-231
MDA-MB-435 = system: MDA-MB-435
MDA-N = system: MDA-N
NCI/ADR-RES = system: NCI/ADR-RES
OVCAR-8 = system: OVCAR-8
PC-3 = system: PC-3
RXF 393 = system: RXF 393
SW-620 = system: SW-620
T47D = system: T47D

With `O=c1cc(-c2ccccc2)oc2cc(O)cc(O)c12` [CHRYSIN] the GI50 (786-0) was 23.6 µM (inactive), the GI50 (A549) was 27 µM (inactive) and the GI50 (ACHN) was 15.2 µM (inactive). For the same molecule, the GI50 (CCRF-CEM) was 19.4 µM (inactive), the GI50 (COLO 205) was 18.5 µM (inactive) and the GI50 (DMS-114) was 22.4 µM (inactive). The GI50 (DMS-273) was 16.2 µM (inactive), the GI50 (EKVX) was 23.1 µM (inactive) and the GI50 (HCC 2998) was 19.8 µM (inactive). The GI50 (HCT-116) was 15.2 µM (inactive), the GI50 (HCT-15) was 20.4 µM and the GI50 (HL-60) was 16.8 µM (inactive). For the same molecule, the GI50 (HOP-62) was 31.4 µM (inactive), the GI50 (HOP-92) was 16.4 µM (inactive) and the GI50 (HT-29) was 23.4 µM (inactive). For the same molecule, the GI50 (IGROV-1) was > 10 µM (inactive), the GI50 (K562) was 22.8 µM (inactive) and the GI50 (KM-20L2) was 23.9 µM (inactive). The GI50 (KM12) was 15.5 µM (inactive), the GI50 (LOX IMVI) was 14.7 µM (inactive) and the GI50 (LXFL 529) was 21.1 µM (inactive). The GI50 (M14) was 33 µM (inactive), the GI50 (M19-MEL) was 25.5 µM (inactive) and the GI50 (MOLT-4) was 18.3 µM (inactive). The GI50 (Malme-3M) was 24.3 µM (inactive), the GI50 (NCI-H226) was 20.6 µM (inactive) and the GI50 (NCI-H23) was 20.9 µM (inactive). For the same molecule, the GI50 (NCI-H460) was 14.2 µM (inactive), the GI50 (NCI-H522) was 15.9 µM (inactive) and the GI50 (OVCAR-3) was 28.8 µM (inactive). The GI50 (OVCAR-4) was 29.8 µM (inactive), the GI50 (OVCAR-5) was 18.6 µM (inactive) and the GI50 (RPMI-8226) was 16 µM (inactive). The GI50 (SF-268) was 23.1 µM (inactive), the GI50 (SF-295) was 14.9 µM (inactive) and the GI50 (SF-539) was 15.1 µM (inactive). For the same molecule, the GI50 (SK-MEL-28) was 16.8 µM (inactive), the GI50 (SK-MEL-2) was 17.9 µM (inactive) and the GI50 (SK-MEL-5) was 10.1 µM (inactive). The GI50 (SK-OV-3) was 27.9 µM (inactive), the GI50 (SN12C) was 17.9 µM (inactive) and the GI50 (SNB-19) was 18.5 µM (inactive). The GI50 (SNB-75) was 10.3 µM (inactive), the GI50 (SNB-78) was 28.8 µM (inactive) and the GI50 (SR) was 23 µM (inactive). For the same molecule, the GI50 (TK-10) was 34.5 µM (inactive), the GI50 (U-251) was 21.7 µM (inactive) and the GI50 (UACC-257) was 21.1 µM (inactive). For the same molecule, the GI50 (UACC-62) was 21.5 µM (inactive), the GI50 (UO-31) was 20.4 µM (inactive) and the GI50 (XF498) was 20 µM (inactive).

In the case of `CC(C)SC1CC2C(CC1(C)O)C2(C)C` (stereo not given), the GI50 (KM-20L2) is reported as 4.3 µM (inactive).

With `CC(C)(C)OC(=O)N/N=C(/N)Cc1ccccc1` the GI50 (786-0) was > 100 µM (inactive), the GI50 (A498) was > 100 µM (inactive) and the GI50 (A549) was > 100 µM (inactive). For the same molecule, the GI50 (ACHN) was > 100 µM (inactive), the GI50 (BT-549) was > 100 µM (inactive) and the GI50 (CAKI-1) was > 100 µM (inactive). For the same molecule, the GI50 (CCRF-CEM) was > 100 µM (inactive), the GI50 (COLO 205) was > 100 µM (inactive) and the GI50 (DU-145) was > 100 µM (inactive). For the same molecule, the GI50 (EKVX) was > 100 µM (inactive), the GI50 (HCC 2998) was > 100 µM (inactive) and the GI50 (HCT-116) was > 100 µM (inactive). The GI50 (HCT-15) was greater than 100 µM, the GI50 (HL-60) was > 100 µM (inactive) and the GI50 (HOP-62) was > 100 µM (inactive). For the same molecule, the GI50 (HOP-92) was > 100 µM (inactive), the GI50 (HT-29) was > 100 µM (inactive) and the GI50 (Hs-578T) was > 100 µM (inactive). The GI50 (IGROV-1) was > 100 µM (inactive), the GI50 (K562) was > 100 µM (inactive) and the GI50 (KM12) was > 100 µM (inactive). The GI50 (LOX IMVI) was > 100 µM (inactive), the GI50 (M14) was > 100 µM (inactive) and the GI50 (MCF7) was > 100 µM (inactive). The GI50 (MDA-MB-231) was > 100 µM (inactive), the GI50 (MDA-MB-435) was > 100 µM (inactive) and the GI50 (MDA-N) was > 100 µM (inactive). The GI50 (MOLT-4) was > 100 µM (inactive), the GI50 (Malme-3M) was > 100 µM (inactive) and the GI50 (NCI-H226) was > 100 µM (inactive). For the same molecule, the GI50 (NCI-H23) was > 100 µM (inactive), the GI50 (NCI-H522) was > 100 µM (inactive) and the GI50 (NCI/ADR-RES) was > 100 µM (inactive). For the same molecule, the GI50 (OVCAR-3) was > 100 µM (inactive), the GI50 (OVCAR-4) was > 100 µM (inactive) and the GI50 (OVCAR-5) was > 100 µM (inactive). For the same molecule, the GI50 (OVCAR-8) was > 100 µM (inactive), the GI50 (PC-3) was > 100 µM (inactive) and the GI50 (RPMI-8226) was > 100 µM (inactive). The GI50 (RXF 393) was > 100 µM (inactive), the GI50 (SF-268) was > 100 µM (inactive) and the GI50 (SF-295) was > 100 µM (inactive). The GI50 (SF-539) was > 100 µM (inactive), the GI50 (SK-MEL-28) was > 100 µM (inactive) and the GI50 (SK-MEL-2) was > 100 µM (inactive). For the same molecule, the GI50 (SK-MEL-5) was > 100 µM (inactive), the GI50 (SK-OV-3) was > 100 µM (inactive) and the GI50 (SN12C) was > 100 µM (inactive). For the same molecule, the GI50 (SNB-19) was > 100 µM (inactive), the GI50 (SNB-75) was > 100 µM (inactive) and the GI50 (SR) was > 100 µM (inactive). The GI50 (SW-620) was > 100 µM (inactive), the GI50 (T47D) was > 100 µM (inactive) and the GI50 (TK-10) was > 100 µM (inactive). For the same molecule, the GI50 (U-251) was > 100 µM (inactive), the GI50 (UACC-257) was > 100 µM (inactive) and the GI50 (UACC-62) was > 100 µM (inactive). The GI50 (UO-31) was > 100 µM (inactive).
